Source: patent US9724351B2, “Compounds for the treatment of paramoxyvirus viral infections” (priority 2012, dated 2017)

Experiments:
[1] = test system: Respiratory Syncytial Virus (RSV) long strain (ATCC#VR-26); assay: RSV Antiviral Assay (CPE reduction assay); type: cell-based; details: human respiratory syncytial virus, 120 h; HEp-2 cells infected with RSV long strain, 5 days, CCK-8 readout; bins (Table 2: less than 1 μM; Table 3: equal to or higher than 1 μM and less than 50 μM); read-out: 50% effective concentration (EC50)
Summary of the method: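 Cytopathic-effect protection measured after 5 days at 37 °C, 5% CO2 via CCK-8 dehydrogenase readout at 450 nm (630 nm reference), EC50 regressed from mean O.D. Host HEp-2 cells received RSV long strain at 100 TCID50/well; compound 9-point ⅓ series starting 100 μM or 1 μM, 1% DMSO, duplicate wells.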

[2] = Cytotoxicity Determination; type: cell-based; details: human, HEp-2 cells, without addition of virus, CCK-8 readout, bins (Table 4: greater than 100 μM; Table 5: equal to or less than 100 μM and greater than 10 μM), read-out: 50% cytotoxicity concentration (CC50)
Summary of the method: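 CC50 was derived from CCK-8 optical density after a 3-4 h reagent incubation. Before that, cells without virus had been treated for 5 days at 37 °C, 5% CO2 with compound at seven ½-step final concentrations from 100 μM, in duplicate wells.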

Row | SMILES | EC50 [1] [µM] | CC50 at 5 days [2] [µM]
1 | COc1cc(C(=O)NCC(=O)c2ccc(OC)c(C3=CS(=O)(=O)c4c(F)cccc43)n2)ccc1OCCO [Compound 1344] | 1 to 50 | 10 to 100
2 | CCOc1cc(C(=O)NCC(=O)N/N=C(\C)c2csc3ccccc23)ccc1N(CC)CC [Compound 509] | 1 to 50 | 10 to 100
3 | CCOCC/C(=N\NC(=O)CNC(=O)c1ccc(OC)c(OC)c1)c1csc2ccccc12 [Compound 400-1] | < 1 | > 100
4 | CCCC/C(=N\NC(=O)CNC(=O)c1cc(OC)c(OC)cc1Cl)c1csc2ccccc12 [Compound 247] | 1 to 50 | > 100
5 | COc1ccc(C(=O)NCC(=O)N/N=C2\CCCc3[nH]c4ccccc4c32)cc1OC [Compound 414] | 1 to 50 | 10 to 100
6 | COc1ccc(C(=O)NCC(=O)NN=C(c2ccccn2)c2ccccn2)cc1OC [Compound 441] | 1 to 50 | > 100
7 | CCOc1ccc(C(=O)NCC(=O)N/N=C(/CCOC)c2csc3c(F)cccc23)cc1OC [Compound 463B] | < 1 | > 100
8 | COc1cc(C(=O)N[C@@H](CCO)C(=O)c2ccc(OC)c(-c3ccc(F)c(C(F)(F)F)c3)n2)ccc1OCCO [Compound 1807] | < 1 | > 100
9 | CNc1cc(C(=O)CNC(=O)c2ccc(OC)c(OC)c2)nc(-c2csc3c(F)cccc23)c1 [Compound 1220] | < 1 | > 100
10 | COc1cc(C(=O)NCC(=O)c2ccc(OC)c(-c3ccc(F)c(C(F)(F)F)c3)n2)ccc1OCCO [Compound 1614] | < 1 | > 100
11 | COC/C(=N\NC(=O)CNC(=O)c1ccc(OC)c(OC)c1)c1csc2ccccc12 [Compound 443] | 1 to 50 | > 100
12 | C=CCC/C(=N\NC(=O)CNC(=O)c1ccc(OCC)c(OC)c1)c1csc2ccccc12 [Compound 458A] | < 1 | 10 to 100
13 | CC/C(=N\NC(=O)CNC(=O)c1ccc(OC)c(OC)c1)c1csc2ccccc12 [Compound 415] | < 1 | 10 to 100
14 | COc1ccc(C(=O)NCC(=O)N/N=C/c2csc3c(Cl)cccc23)cc1OC [Compound 400-12] | 1 to 50 | 10 to 100
15 | COc1cc(C(=O)NCC(=O)c2ccc(OC(F)(F)F)c(-c3csc4c(F)cccc34)n2)ccc1OCCO [Compound 2107] | 1 to 50 | 10 to 100
16 | COc1cc(C(=O)NCC(=O)c2cccc(-c3csc4c(F)cccc34)n2)ccc1OC1CC(O)C1 (centres unmarked) [Compound 1256] | < 1 | 10 to 100
17 | COc1cc(-c2csc3c(F)cccc23)nc(C(=O)CNC(=O)c2ccc(OC)c(OC)c2)n1 [Compound 3401] | 1 to 50 | > 100
18 | COCC/C(=N/NC(=O)CNC(=O)c1ccc(OC2COC2)c(OC)c1)c1csc2c(F)cccc12 [Compound 514B] | < 1 | > 100
19 | COc1ccc(C(=O)NC(C)CC(=O)c2ccc(OC)c(-c3csc4c(F)cccc34)n2)cc1OC (centres unmarked) [Compound 1801] | 1 to 50 | > 100
20 | CCc1ccc(C(=O)CNC(=O)c2ccc(OC)c(OC)c2)nc1-c1csc2c(F)cccc12 [Compound 2105] | 1 to 50 | 10 to 100

Row | SMILES | EC50 [1] [µM] | CC50 at 5 days [2] [µM]
21 | COc1cc(C(=O)NCC(=O)c2ccc(OC)c(-c3ccc(F)c(C(F)F)c3)n2)ccc1OCCO [Compound 1327] | < 1 | > 100
22 | COc1cc(C(=O)NCC(=O)c2ccc(OC)c(-c3ccccc3)n2)ccc1OCCO [Compound 1613] | < 1 | > 100
23 | COc1ccc(C(=O)NCC(=O)c2ccc(OC)c(-c3ccc(C(F)(F)F)cc3)n2)cc1OC [Compound 1531] | < 1 | > 100
24 | COc1cc(C(=O)NCC(=O)c2cccc(-c3csc4c(F)cccc34)n2)ccc1OCc1nc[nH]n1 [Compound 1242] | 1 to 50 | 10 to 100
25 | COc1ccc(C(=O)NCC(=O)c2ccc(OC)c(-c3csc4ccccc34)n2)cc1OC [Compound 1508] | < 1 | > 100
26 | CNc1ccc2scc(/C=N/NC(=O)CNC(=O)c3ccc(OC)c(OC)c3)c2c1 [Compound 400-18] | 1 to 50 | > 100
27 | COc1ccc(C(=O)NCC(=O)c2ccc(OC)c(-c3ccc(OC(F)(F)F)cc3)n2)cc1OC [Compound 1532] | 1 to 50 | 10 to 100
28 | COc1ccc(C(=O)NCC(=O)c2cc(C=C(C)C)cc(-c3csc4c(F)cccc34)n2)cc1OC [Compound 1238] | 1 to 50 | > 100
29 | COc1ccc(C(=O)NCC(=O)c2nc(-c3csc4c(F)cccc34)c(C)n2C)cc1OC [Compound 1358] | < 1 | 10 to 100
30 | COc1ccc(C(=O)NCC(=O)c2ccc(OC)c(-c3csc(C(=O)O)c3)n2)cc1OC [Compound 1537] | 1 to 50 | > 100
31 | COc1ccc(C(=O)NCC(=O)N/N=C(/c2csc3ccccc23)C2CC2)cc1OC [Compound 426] | 1 to 50 | 10 to 100
32 | COc1ccc(C(=O)NCC(=O)NN=C(c2ccccc2)c2ccccc2)cc1OC [Compound 440] | 1 to 50 | > 100
33 | COc1cc(OCCC(=O)N(C)/N=C/c2csc3c(F)cccc23)ccc1OCCO [Compound 2306] | 1 to 50 | > 100
34 | COc1ccc(C(=O)NCC(=O)c2cccc(-c3csc4c(F)cccc34)c2)cc1OC [Compound 1218] | 1 to 50 | > 100
35 | COCC/C(=N\NC(=O)CNC(=O)c1ccc(OCCO)c(OC)c1)c1csc2c(F)cccc12 [Compound 603A] | < 1 | > 100
36 | COCC/C(=N\NC(=O)CNC(=O)c1ccc(OC)c(OC)c1)c1csc2c(F)cccc12 [Compound 400-15] | < 1 | > 100
37 | COCC/C(=N/NC(=O)CNC(=O)c1ccc(OC)c(OC)c1)c1csc2c(F)cccc12 [Compound 400-16] | 1 to 50 | > 100
38 | COc1ccc(C(=O)NCC(=O)c2ccc(OC)c(-c3ccnc(F)c3)n2)cc1OC [Compound 1535] | 1 to 50 | > 100
39 | CCOc1ccc(C(=O)NCC(=O)N/N=C/c2csc3c(F)cccc23)cc1OC [Compound 400-26] | < 1 | > 100
40 | COc1ccc(C(=O)NCC(=O)N/N=C/c2c(C)n(C)c3ccccc23)cc1OC [Compound 486] | 1 to 50 | 10 to 100

Row | SMILES | EC50 [1] [µM] | CC50 at 5 days [2] [µM]
41 | COc1cc(C(=O)NCC(=O)c2ccc(OC)c(-c3ccc(F)c(CF)c3)n2)ccc1OCCO [Compound 1326] | < 1 | > 100
42 | COc1ccc(C(=O)NCC(=O)c2ccc(OC)c(-c3ccc4[nH]c(C)nc4c3)n2)cc1OC [Compound 1521] | 1 to 50 | 10 to 100
43 | COc1ccc(C(=O)NCC(=O)N/N=C2\CCSc3ccccc32)cc1OC [Compound 451] | 1 to 50 | > 100
44 | COc1ccc(C(=O)NCC(=O)N/N=C2\CCCc3sccc32)cc1OC [Compound 436] | 1 to 50 | > 100
45 | COc1ccc(C(=O)NCC(=O)N/N=C/c2csc3cc(F)ccc23)cc1OC [Compound 400-17] | 1 to 50 | 10 to 100
46 | COc1ccc(C(=O)NCC(=O)c2cc(C)cc(-c3csc4c(F)cccc34)n2)cc1OC [Compound 1211] | < 1 | > 100
47 | COc1cc(C(=O)NCC(=O)c2ccc(OC)c(-c3ccc(F)c(Cl)c3)n2)ccc1OCC(C)(C)O [Compound 1319] | < 1 | > 100
48 | COc1cc(C(=O)NCC(=O)c2ccc(OC)c(-c3ccc(F)c(C#N)c3)n2)ccc1OCCO [Compound 1615] | 1 to 50 | > 100
49 | COc1ccc(C(=O)NCC(=O)N2CCCC(c3ccc(F)c4sccc34)=N2)cc1OC [Compound 3500] | < 1 | > 100
50 | COc1cc(C(=O)CNC(=O)c2ccc(OCCN)c(OC)c2)nc(-c2csc3c(F)cccc23)c1 [Compound 1214] | < 1 | 10 to 100
51 | COc1cc(C(=O)NCC(=O)N(C)C(=O)N(C)c2csc3c(F)cccc23)ccc1OCCO [Compound 2803] | 1 to 50 | > 100
52 | COc1ccc(C(=O)NCC(=O)N/N=C(\C#N)c2ccccc2)cc1OC [Compound 454] | 1 to 50 | > 100
53 | COc1cc(C(=O)NCC(=O)N(C)/N=C/c2c(C)sc3c(F)cccc23)ccc1OCCO [Compound 2300] | < 1 | 10 to 100
54 | COc1ccc(C(=O)NCC(=O)c2cc(CC(C)C)cc(-c3csc4c(F)cccc34)n2)cc1OC [Compound 1239] | 1 to 50 | > 100
55 | CCN1C/C(=N\NC(=O)CNC(=O)c2ccc(OC)c(OC)c2)c2c(sc3c(F)cccc23)C1 [Compound 400-23] | < 1 | > 100
56 | COc1cc(C(=O)NCC(=O)c2ccc(OC)c(-c3ccc(F)c(Cl)c3)n2)ccc1OCC(=O)N(C)C [Compound 1322] | < 1 | > 100
57 | CCCC/C(=N\NC(=O)CNC(=O)c1ccc(OC)c(OC)c1)c1csc2ccccc12 [Compound 423] | < 1 | > 100
58 | COc1ccc(C(=O)NCC(=O)c2cn(C)cc(-c3csc4c(F)cccc34)c2=O)cc1OC [Compound 1338] | 1 to 50 | 10 to 100
